The values below come from article PMC8476755 (Frontiers in Chemistry, 2021).

In test [1] the target is T1, BGT1 wt (Homo sapiens, UniProt P48065).
T1 construct: expressed in transfected cells; host or cells: tsA201 (transformed HEK293), transient
T1 sequence (P48065 1-614): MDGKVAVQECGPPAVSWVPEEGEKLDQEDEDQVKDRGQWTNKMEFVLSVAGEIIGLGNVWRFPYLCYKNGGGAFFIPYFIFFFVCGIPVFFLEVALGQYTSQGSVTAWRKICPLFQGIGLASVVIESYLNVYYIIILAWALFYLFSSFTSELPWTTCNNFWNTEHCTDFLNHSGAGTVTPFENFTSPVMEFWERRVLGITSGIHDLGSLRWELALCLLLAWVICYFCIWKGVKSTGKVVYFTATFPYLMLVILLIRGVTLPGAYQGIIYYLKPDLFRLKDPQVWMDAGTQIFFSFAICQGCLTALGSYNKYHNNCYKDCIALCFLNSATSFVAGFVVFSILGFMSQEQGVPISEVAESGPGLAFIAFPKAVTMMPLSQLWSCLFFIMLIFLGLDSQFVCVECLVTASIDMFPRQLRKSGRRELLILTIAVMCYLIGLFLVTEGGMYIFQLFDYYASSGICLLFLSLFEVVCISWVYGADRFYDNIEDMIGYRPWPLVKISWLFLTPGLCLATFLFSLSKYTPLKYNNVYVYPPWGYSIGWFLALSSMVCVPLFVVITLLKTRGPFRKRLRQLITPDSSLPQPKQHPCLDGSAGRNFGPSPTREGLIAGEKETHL
Put plainly: [3H]GABA uptake assay, transient expression in tsA201 cells. It is filed as cell-based. Conditions: for IC50: BGT1 wt, tsA201 cells; for Selectivity ratio for BGT1 over GAT3: [3H]GABA uptake IC50 GAT3 wt / BGT1 wt. From the text:
(§1) FIGURE 6 (A) Pocket alignment of the orthosteric site of the four GAT subtypes colored according to the default ClustalX color scheme ([Larkin et al., 2007]). The pocket was defined as all corresponding GAT residues (15 in total) that are within a distance of 4.5 Å of the co-crystallized ligand leucine in the homologous LeuT crystal structure (PDB ID 2A65) ([Yamashita et al., 2005]) according to the alignment by Kickinger et al. ([Kickinger et al., 2019]). The mutated residues in BGT1 and the corresponding residues in GAT1-3 are indicated by a red box. The numbering of all residues within the orthosteric pocket can be found in the Supplementary Table S1.
(§2) The tsA201 cell line (a transformed HEK293 cell line), the Flp-In CHO cell lines stably expressing human (h) GATs and the HEK293 cell line stably expressing human α1β2γ2 GABAA receptors have been described previously and were cultured accordingly ([Al-Khawaja et al., 2014]; [Falk-Petersen et al., 2020]). The tsA201 cell line used for transient expression of hGATs was transfected with DNA constructs (8 μg per 10 cm plate) using 40 μL PolyFect transfection reagent according to the manufacturer’s protocol (Qiagen).
(§3) Briefly, cells were seeded in white 96-well plates (White Opaque Tissue Culture (TC) plated 96-well Microplate) pre-coated with PDL. Medium was removed on the following day and cells washed with 100 µL/well assay buffer (HBSS supplemented with 20 mM HEPES, 1 mM CaCl2 and 1 mM MgCl2, pH 7.4). […] The cells were washed 3 times with 100 µL/well ice-cold assay buffer, 150 µL/well MicroScint™20 was subsequently added before the plate was shaken for at least 1 h. The plate was counted in a Packard TopCounter microplate scintillation counter (PerkinElmer) for 3 min per well. […] Data presented is the pooled data of at least three independent experiments with three technical replicates if not stated otherwise in figure legends. Concentration–response curves were fitted by non-linear regression to the sigmoidal concentration-response model with GraphPad Prism (version 9.0.0, GraphPad Software, San Diego, CA, United States) as described ([Lie et al., 2020]).

Test [2] addresses T2, GAT3 wt (Homo sapiens, UniProt P48066).
T2 construct: expressed in transfected cells; host or cells: tsA201 (transformed HEK293), transient
T2 sequence (P48066 1-632): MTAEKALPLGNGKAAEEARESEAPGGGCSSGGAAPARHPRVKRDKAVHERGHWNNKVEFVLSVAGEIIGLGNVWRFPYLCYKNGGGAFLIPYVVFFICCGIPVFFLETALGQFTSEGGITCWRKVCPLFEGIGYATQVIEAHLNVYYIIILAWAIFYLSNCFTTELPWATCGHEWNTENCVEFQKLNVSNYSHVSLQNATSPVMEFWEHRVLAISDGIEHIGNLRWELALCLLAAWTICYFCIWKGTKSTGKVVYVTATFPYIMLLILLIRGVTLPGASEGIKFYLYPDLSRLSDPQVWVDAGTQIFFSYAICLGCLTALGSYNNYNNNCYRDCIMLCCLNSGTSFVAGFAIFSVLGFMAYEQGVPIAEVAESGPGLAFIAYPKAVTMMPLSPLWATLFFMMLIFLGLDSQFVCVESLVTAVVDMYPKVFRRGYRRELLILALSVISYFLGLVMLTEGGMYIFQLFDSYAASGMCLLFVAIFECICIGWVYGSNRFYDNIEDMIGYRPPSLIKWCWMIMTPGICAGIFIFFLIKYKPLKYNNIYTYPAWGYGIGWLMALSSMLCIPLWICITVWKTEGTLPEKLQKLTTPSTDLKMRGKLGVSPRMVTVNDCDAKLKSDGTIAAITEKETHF
The test is described as above. It is filed as cell-based.
From the text: as §1, §2, §3

Read-outs that look alike come from different tables or passages of the source.

For `CN[C@@]12CC[C@H](C(=O)O)[C@@H]1C2` [compound 2], the IC50 in test [1] (30 nM [3H]GABA, read-out: IC50) amounted to 9.8 µM; in test [2], 211 µM. Further, the “Selectivity ratio for BGT1 over GAT3” value in test [1] came to 22.
As for `N[C@@]12CC[C@H](C(=O)O)[C@@H]1C2` [bicyclo-GABA, (1S,2S,5R)-5-aminobicyclo[3.1.0]hexane-2-carboxylic acid], the IC50 in test [1] (30 nM [3H]GABA, read-out: IC50) was 1.5 µM; in test [1] (read-out: pIC50 ± S.E.M. (converted)), 1.26 µM; in test [2], 610 µM. In test [1], the “Selectivity ratio for BGT1 over GAT3” value came out at 407.
